Values quoted from earlier work, collected in patent US20220079967A1, “COMPOSITION FOR IMPROVING VASCULAR ENDOTHELIAL FUNCTION” (SAN-EI GEN F.F.I., INC., priority 2019, published 2022).

Test system: endothelial function and blood pressure
Details: administered to human, also with increased dosage (Bondonno et al. 2016)

Which results are given for `O=c1c(O[C@@H]2O[C@H](CO)[C@@H](O)[C@H](O)[C@H]2O)c(-c2ccc(O)c(O)c2)oc2cc(O)cc(O)c12` [isoquercitrin]?
effect on FMD value: does not affect; effect on blood pressure: does not affect
